Results reported in patent publication US11439643B2, “Combination therapy using belinostat and pralatrexate to treat lymphoma” (Spectrum Pharmaceuticals, Inc., priority 2015, dated 2022).
Like-named read-outs stand apart in the source and are kept apart here.

Tests used:
Format in all cases: cell-based
[1] = test system: Jeko-1 [Mantle Cell Lymphoma (B cell origin)]; test: CellTiter-Glo cell viability / growth inhibition, Jeko-1; conditions: Homo sapiens; Jeko-1, belinostat plus pralatrexate concurrently, 72 h; read-out: IC50 in combination studies
Procedure: (§1) The growth inhibitory effects of belinostat alone, and in combination with pralatrexate, was assayed in several different human lymphoma cell lines in vitro.
(§2) Serum used in this study is un-dialyzed fetal bovine serum (Atlanta Biologics) and contains<[…] of 5-methyltetrahydrofolate.
(§3) The cultures are maintained in T75-cm^2 culture flasks at 37° C., 95% air humidity, and 5% CO2. The cells are subcultured at 80-90% confluence and are seeded into 96-well plates at 1.5×10^4 cells per well for each experiment.
(§4) Cell Treatment: Treatment is initiated 24 hours after plating. […] Growth Inhibition Assay: Cell viability is determined using the CellTiter-Glo® Luminescent Cell Viability assay from Promega. The CellTiter-Glo® assay is a homogeneous method to determine and compare cell viability using ATP utilization. Following treatment, 100 μl of growth medium is removed and cells are incubated with 100 μl CellTiter-Glo® reagent for two minutes with nutation and incubated at room temperature for ten additional minutes to stabilize the luminescence signal; luminescence is then measured using a Biotek luminometer with values reported in (Lum).
(§5) Data analysis: Cell viability in each assay is expressed as a percentage versus untreated control cells.

[2] = test system: KARPAS-299 [Human Non-Hodgkin's Ki-positive Large Cell Lymphoma (T cell origin)]; test: CellTiter-Glo cell viability / growth inhibition, KARPAS-299
Procedure: as §1, §2, §3, §4, §5

[3] = test system: HUT-78 [Cutaneous T lymphocyte (T cell origin)]; test: CellTiter-Glo cell viability / growth inhibition, HUT-78; conditions: Homo sapiens, HuT78
Procedure: as §1, §2, §3, §4, §5

[4] = test system: panel of lymphoma cell lines; test: CellTiter-Glo cell viability, panel of lymphoma cell lines; conditions: Homo sapiens; single agent, 72 hr exposure, range over cell lines; read-out: Single agent IC50 values across a panel of lymphoma cell lines
Procedure: as §1, §2, §3
Cell Treatment: Treatment is initiated 24 hours after plating.
Growth Inhibition Assay: Cell viability is determined using the CellTiter-Glo® Luminescent Cell Viability assay from Promega. The CellTiter-Glo® assay is a homogeneous method to determine and compare cell viability using ATP utilization. Following treatment, 100 μl of growth medium is removed and cells are incubated with 100 μl CellTiter-Glo® reagent for two minutes with nutation and incubated at room temperature for ten additional minutes to stabilize the luminescence signal; luminescence is then measured using a Biotek luminometer with values reported in (Lum).
as §5

[5] = KARPAS-299, belinostat plus pralatrexate concurrently, 72 h, read-out: IC50 in combination studies
[6] = HUT-78, belinostat plus pralatrexate concurrently, 72 h, read-out: IC50 in combination studies
[7] = HUT-78, single agent, 72 hr exposure, read-out: Single Agent IC50

C#CCC(Cc1cnc2nc(N)nc(N)c2n1)c1ccc(C(=O)N[C@@H](CCC(=O)O)C(=O)O)cc1 (mixture of isomers) [Pralatrexate, (2S)-2-[[4-[(1RS)-1-[(2,4-diaminopteridin-6-yl)methyl]but-3ynyl]benzoyl]amino]pentanedioic acid]
IC50 [1]: 2.1 nM
IC50 [2, 5]: 3.6 nM
IC50 ([2]; KARPAS-299, single agent, 72 hr exposure, read-out: Single Agent IC50): 24 nM
IC50 [3, 6]: 4.1 nM
IC50 [3, 7]: 2.8 nM
IC50 [4]: 2 to 25 nM

O=C(/C=C/c1cccc(S(=O)(=O)Nc2ccccc2)c1)NO [Belinostat, (2E)-N-hydroxy-3-[3-(phenylsulfamoyl)phenyl]prop-2-enamide]
IC50 [1]: 87 nM
IC50 [2, 5]: 127 nM
IC50 [3, 6]: 170 nM
IC50 [3, 7]: 97 nM
IC50 [4]: 90 to 210 nM
